From US9175305B2, “Mutant hydroxyphenylpyruvate dioxygenase polypeptides and methods of use” (Syngenta Participations AG, priority 2009, dated 2015)
pKd: −log10 of the molar value. Where “and” joins values, the source holds several entries; their conditions need not be identical. Identical values can stand only once. Like-named read-outs stand apart in the source and are kept apart here.

What was measured:
HPPD SEQ ID NO:15 = HPPD SEQ ID NO:15 (Avena sativa, UniProt A0ACD5V6K6, DEL109-109/Q298A); assay: biochemical; format: binding; settings: for koff: read-out: koff (k1)
Chain of HPPD SEQ ID NO:15 (A0ACD5V6K6 entry or part of it DEL109-109/Q298A): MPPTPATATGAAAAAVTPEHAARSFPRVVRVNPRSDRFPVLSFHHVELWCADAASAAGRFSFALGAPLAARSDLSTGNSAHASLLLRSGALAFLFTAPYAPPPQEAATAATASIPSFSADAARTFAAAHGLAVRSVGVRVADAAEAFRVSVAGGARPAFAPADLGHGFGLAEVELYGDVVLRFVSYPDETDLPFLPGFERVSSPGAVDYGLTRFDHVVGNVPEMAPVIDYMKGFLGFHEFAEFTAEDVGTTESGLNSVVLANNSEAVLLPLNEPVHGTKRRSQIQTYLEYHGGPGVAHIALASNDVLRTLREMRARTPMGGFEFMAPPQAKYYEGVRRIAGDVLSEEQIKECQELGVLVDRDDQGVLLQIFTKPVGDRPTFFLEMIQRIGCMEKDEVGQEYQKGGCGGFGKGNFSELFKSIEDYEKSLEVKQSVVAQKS
Description: (§1) On rates (governed by an association rate constant, kon) for the formation of the enzyme: inhibitor complexes, EI and off rates (governed by a dissociation rate constant, koff) were determined by methods known in the art and essentially as described in Hawkes et al. (2001) Proc. Bright. Crop. Prot. Conf. Weeds, 2:563-568 and in PCT Patent App. Pub. No. WO 02/46387).
(§2) For example, on rates were measured by, at zero time, adding ˜60 pmoles HPPD to 50 mM BisTrisPropane buffer at pH7.0 and at 25° C. containing 25 mM Na ascorbate, 4 μg/ml bovine catalase (Sigma, St. Louis, Mo.) and an excess (˜300 pmoles) of ^14C inhibitor in a total assay volume of 425 μl and, at various time points (0-180 s), quenching the radiolabel binding reaction by addition and rapid mixing of 100 μl ‘cold’ 1 mM structure A. Protein samples quenched at different times were then exchanged into 50 mM BisTrisPropane buffer at pH 7.0 containing 0.1M KCl by rapid chromatography down a NAP5 G25 Sephadex column (GE Healthcare Ltd, Buckinghamshire UK) and the amount of ^14C bound to protein fractions quantified in Optiphase scintillant using a Tri-Carb 2900TR scintillation counter (Perkin Elmer, Wellesley, Mass.). The data were fit according to the scheme below in order to derive the value of the apparent second order rate constant, k2, governing the association rate of enzyme and radiolabelled inhibitor. A range of enzyme and inhibitor concentrations were used. […] Further example methods are described in PCT Patent App. Pub. No. WO 02/46387.
(§3) Off rates (k1 in the scheme below) were derived from exchange rate studies where either the test inhibitor, I, or its exchange partner, J were radiolabelled and the data fit according to the scheme below. As noted in Hawkes et al. (2001) Proc. Bright. Crop. Prot. Conf.
(§4) After 30 minutes the exchange reaction was initiated with addition of 100 μl 1 mM ‘cold’ structure A with thorough mixing, and, immediately, 150 μl were withdrawn and loaded onto a NAP5 column, the protein exchanged into 50 mM BisTrisPropane buffer at pH 7.0 containing 0.1M KCl by rapid (<2 min) chromatography down a NAP5 G25 Sephadex column (GE Healthcare Ltd, Buckinghamshire UK) and the amount of ^14C bound to protein measured by Optiphase scintillant using a Tri-Carb 2900TR scintillation counter (Perkin Elmer, Wellesley, Mass.). Further aliquots were removed and measured in the same way at various times over minutes or hours as required in order to determine the exchange kinetics.
(§5) After 30 minutes the reaction vessel was transferred to ice. After a further 10 minutes at ice temperature the exchange reaction was initiated by addition of 100 μl 1 mM Structure A, with thorough mixing, and 150 μl was withdrawn and loaded onto a NAP5 column in a cold room at ˜5-8° C. in order to quantify the amount of radiolabel remaining bound to the protein at various time from the start of exchange at ice temperature.
(§6) Off rates (k1) of HPPD inhibitors that are not available radiolabelled or that present other measurement problems (for example high levels of background non-specific protein-binding which can be measured as radiolabel binding that persists in the presence of high concentrations of ‘cold’ inhibitor) may be measured indirectly. […] Exemplary methods are also described in PCT Patent App. Pub. No. WO 02/46387.

HPPD SEQ ID NO:23 = HPPD SEQ ID NO:23 (Avena sativa, UniProt A0ACD5V6K6, A242W/DEL109-109); assay: biochemical; format: binding; settings: for koff: read-out: koff (k1)
Chain of HPPD SEQ ID NO:23 (A0ACD5V6K6 entry or part of it DEL109-109/A242W): as the sequence (A0ACD5V6K6 entry or part of it DEL109-109/Q298A) above, with A241W, A297Q counted along it
Description: as §1, §2, §3, §4, §5, §6

HPPD SEQ ID NO:22 = HPPD SEQ ID NO:22 (Avena sativa, UniProt A0ACD5V6K6, DEL109-109/L256M); assay: biochemical; format: binding; settings: for koff: read-out: koff (k1)
Chain of HPPD SEQ ID NO:22 (A0ACD5V6K6 entry or part of it DEL109-109/L256M): as the sequence (A0ACD5V6K6 entry or part of it DEL109-109/Q298A) above, with L255M, A297Q counted along it
Description: as §1, §2, §3, §4, §5, §6

HPPD SEQ ID NO:24 = HPPD SEQ ID NO:24 (Avena sativa, UniProt A0ACD5V6K6, DEL109-109/L359M); assay: biochemical; format: binding; settings: for koff: read-out: koff (k1); for kon: read-out: kon (k2)
Chain of HPPD SEQ ID NO:24 (A0ACD5V6K6 entry or part of it DEL109-109/L359M): as the sequence (A0ACD5V6K6 entry or part of it DEL109-109/Q298A) above, with A297Q, L358M counted along it
Description: as §1, §2, §3, §4, §5, §6

HPPD SEQ ID NO:21 = HPPD SEQ ID NO:21 (Avena sativa, UniProt A0ACD5V6K6, DEL109-109/I285V); assay: biochemical; format: binding; settings: for koff: read-out: koff (k1)
Chain of HPPD SEQ ID NO:21 (A0ACD5V6K6 entry or part of it DEL109-109/I285V): as the sequence (A0ACD5V6K6 entry or part of it DEL109-109/Q298A) above, with I284V, A297Q counted along it
Description: as §1, §2, §3, §4, §5, §6

HPPD SEQ ID NO:14 = HPPD SEQ ID NO:14 (Avena sativa, UniProt A0ACD5V6K6, DEL109-109); assay: biochemical; format: binding; settings: for Kd/Km ratio: HPPD SEQ ID NO:14
Chain of HPPD SEQ ID NO:14 (A0ACD5V6K6 entry or part of it DEL109-109): as the sequence (A0ACD5V6K6 entry or part of it DEL109-109/Q298A) above, with A297Q counted along it
Description: as §1, §2, §3, §4, §5, §6

HPPD SEQ ID NO:18 = HPPD SEQ ID NO:18 (Avena sativa, UniProt A0ACD5V6K6, DEL109-109/I285T); assay: biochemical; format: binding; settings: for koff: read-out: koff (k1)
Chain of HPPD SEQ ID NO:18 (A0ACD5V6K6 entry or part of it DEL109-109/I285T): as the sequence (A0ACD5V6K6 entry or part of it DEL109-109/Q298A) above, with I284T, A297Q counted along it
Description: as §1, §2, §3, §4, §5, §6

[1] = tested on: soybean event 1 (vector 15764) expressing SEQ ID NO:14; assay: herbicide spray test on soybean events; format: in vivo; settings: event 1/SEQ#14, V2 growth stage, 14 DAT, average of n=7
Source text: (§7) Each data point represents the average damage score from n=7 replicates.
(§8) These events were used to compare the performance of five 17147 events. Four of these, SF, S8, S7 and S3 had not been preselected for tolerance level (other than to confirm resistance, non-chimerical nature and the presence of the gene) while the remaining event, T0, had been preselected as the most resistant out of five 17147 events in a preliminary field test.
(§9) Plants were in 4×4×4 inch plastic pots and grown under a 15/9 hour light regime (daylight supplemented by artificial light in greenhouses) at a minimum night-time temperature of 18° C. and maximum daytime temperature of 27° C. Soil was regular VBRC mix (1:1 mixture of Vero field soil and Fafard Mix II) where Vero field soil is 98% sand and 2% clay. […] Spray volume was 150 L/ha and the damage scores reflect assessments at 14 DAT.

[2] = tested on: soybean event S8 (vector 17147) expressing SEQ ID NO:24; assay: herbicide spray test on soybean events; format: in vivo; settings: event S8/SEQ#24, V2 growth stage, 14 DAT, average of n=7
Source text: as §7, §8, §9

[3] = tested on: soybean event S3 (vector 17147) expressing SEQ ID NO:24; assay: herbicide spray test on soybean events; format: in vivo; settings: event S3/SEQ#24, V2 growth stage, 14 DAT, average of n=7
Source text: as §7, §8, §9

[4] = tested on: soybean event S7 (vector 17147) expressing SEQ ID NO:24; assay: herbicide spray test on soybean events; format: in vivo; settings: event S7/SEQ#24, V2 growth stage, 14 DAT, average of n=7
Source text: as §7, §8, §9

[5] = tested on: soybean event 2 (vector 15764) expressing SEQ ID NO:14; assay: herbicide spray test on soybean events; format: in vivo; settings: event 2/SEQ#14, V2 growth stage, 14 DAT, average of n=7
Source text: as §7, §8, §9

[6] = tested on: soybean event T0 (vector 17147) expressing SEQ ID NO:24; assay: herbicide spray test on soybean events; format: in vivo; settings: event T0/SEQ#24, V2 growth stage, 14 DAT, average of n=7
Source text: as §7, §8, §9

[7] = tested on: soybean event SF (vector 17147) expressing SEQ ID NO:24; assay: herbicide spray test on soybean events; format: in vivo; settings: event SF/SEQ#24, V2 growth stage, 14 DAT, average of n=7
Source text: as §7, §8, §9

Jack w/t = assay: herbicide spray test on soybean; format: in vivo; settings: V2 growth stage, 14 DAT, average of n=7
Description: as §7, §9

[8] = 25° C., direct, radiochemical method, average and individual experiments, read-out: Off rate k1
[9] = 25° C., direct, radiochemical method, average and individual experiments, read-out: On rate k2
[10] = Kd, HPPD variant SEQ ID# 14, 25° C.
[11] = Kd, estimated from on and off rates, 25° C.

## CS(=O)(=O)c1cc(C(F)(F)F)ccc1C(=O)C(C#N)C(=O)C1CC1 (centres unmarked) [Structure D]
HPPD SEQ ID NO:15
  koff: 2.37e-05 s⁻¹
HPPD SEQ ID NO:23
  koff: 2.37e-05 s⁻¹
HPPD SEQ ID NO:22
  koff: 2.37e-05 s⁻¹
HPPD SEQ ID NO:24
  pKd: 8.54
  koff: 9.18e-05 s⁻¹
  kon: 32000 M⁻¹ s⁻¹
HPPD SEQ ID NO:21
  koff: 3.96e-05 s⁻¹
HPPD SEQ ID NO:14; 25° C., direct, radiochemical method, average and individual experiments
  Off rate k1: 4.17e-05 s⁻¹ and 3.75e-05 s⁻¹
HPPD SEQ ID NO:14; [8]
  koff: 3.96e-05 s⁻¹
HPPD SEQ ID NO:14; [9]
  kon: 32000 M⁻¹ s⁻¹
HPPD SEQ ID NO:14; 25° C., enzyme activity-based method, read-out: On rate, activity-based method
  kon: 32000 M⁻¹ s⁻¹
HPPD SEQ ID NO:14
  Kd/Km ratio: 0.00023
HPPD SEQ ID NO:14; [10]
  pKd: 8.92
HPPD SEQ ID NO:14; [11]
  pKd: 8.91
HPPD SEQ ID NO:14; read-out: koff (k1)
  koff: 3.96e-05 s⁻¹
HPPD SEQ ID NO:14; read-out: kon (k2)
  kon: 32000 M⁻¹ s⁻¹
HPPD SEQ ID NO:18
  koff: 3.96e-05 s⁻¹

## CCOc1c(S(C)(=O)=O)ccc(C(=O)C2C(=O)CC(C)CC2=O)c1Cl (centres unmarked) [Structure A]
HPPD SEQ ID NO:15
  pKd: 9.02
  koff: 3.33e-05 s⁻¹
HPPD SEQ ID NO:15; read-out: kon (k2)
  kon: 35000 M⁻¹ s⁻¹
HPPD SEQ ID NO:23
  pKd: 9.48
  koff: 2.83e-05 s⁻¹
HPPD SEQ ID NO:23; read-out: kon (k2)
  kon: 85000 M⁻¹ s⁻¹
HPPD SEQ ID NO:22
  pKd: 9.89
  koff: 1.08e-05 s⁻¹
HPPD SEQ ID NO:22; read-out: kon (k2)
  kon: 85000 M⁻¹ s⁻¹
HPPD SEQ ID NO:24
  pKd: 9.57
  koff: 2.3e-05 s⁻¹
  kon: 85000 M⁻¹ s⁻¹
HPPD SEQ ID NO:21
  pKd: 9.70
  koff: 1.67e-05 s⁻¹
HPPD SEQ ID NO:21; read-out: kon (k2)
  kon: 85000 M⁻¹ s⁻¹
HPPD SEQ ID NO:14; [8]
  koff: 1.67e-05 s⁻¹
HPPD SEQ ID NO:14; [9]
  kon: 85000 M⁻¹ s⁻¹
HPPD SEQ ID NO:14
  Kd/Km ratio: 0.000036
HPPD SEQ ID NO:14; [10]
  pKd: 9.70
HPPD SEQ ID NO:14; [11]
  pKd: 9.71
HPPD SEQ ID NO:14; read-out: koff (k1)
  koff: 1.67e-05 s⁻¹
HPPD SEQ ID NO:14; read-out: kon (k2)
  kon: 85000 M⁻¹ s⁻¹
HPPD SEQ ID NO:18
  pKd: 9.40
  koff: 1.67e-05 s⁻¹
HPPD SEQ ID NO:18; read-out: kon (k2)
  kon: 42000 M⁻¹ s⁻¹

## CS(=O)(=O)c1cc(C(F)(F)F)ccc1C(=O)c1cnoc1C1CC1 [IFT, isoxaflutole]
HPPD SEQ ID NO:24
  SEQ ID NO:24 superior to SEQ ID NO:14 (in vitro, in particular off rate data): 2.3 fold
[1]; IFT 420 g/ha
  % dam.: 26.4%
[2]; IFT 420 g/ha
  % dam.: 31.3%
[3]; IFT 420 g/ha
  % dam.: 30%
[4]; IFT 420 g/ha
  % dam.: 20.7%
[5]; IFT 420 g/ha
  % dam.: 42.5%
[6]; IFT 420 g/ha
  % dam.: 19.3%
[7]; IFT 420 g/ha
  % dam.: 40%
Jack w/t; IFT 420 g/ha
  % dam.: 96.1%

## CS(=O)(=O)c1ccc(C(=O)C2C(=O)CCCC2=O)c(Cl)c1COCC(F)(F)F [E, tembotrione]
HPPD SEQ ID NO:24; relative to SEQ ID NO:14
  SEQ ID NO:24 superior to SEQ ID NO:14 (in vitro, in particular off rate data): neutral
HPPD SEQ ID NO:14
  pKd: 9.49
  Kd/Km ratio: 0.000059
HPPD SEQ ID NO:14; 25° C., indirect radiochemical method, average and individual experiments
  Off rate k1: 5.5e-05 s⁻¹ and 2.85e-05 s⁻¹
HPPD SEQ ID NO:14; read-out: Off rate k1, 25° C., indirect radiochemical method, average and individual experiments
  koff: 4.17e-05 s⁻¹
HPPD SEQ ID NO:14; read-out: On rate k2
  kon: 130000 M⁻¹ s⁻¹
[1]; E 368 g/ha
  % dam.: 36.4%
[2]; E 368 g/ha
  % dam.: 80%
[3]; E 368 g/ha
  % dam.: 51.4%
[4]; E 368 g/ha
  % dam.: 41.4%
[5]; E 368 g/ha
  % dam.: 52.1%
[6]; E 368 g/ha
  % dam.: 39.3%
[7]; E 368 g/ha
  % dam.: 97.1%
Jack w/t; E 368 g/ha
  % dam.: 84.3%
